# In the NIST ThermoML archive (doi:10.1021/acs.jced.8b00132):
# Values joined by “and” are separate entries in the source; they are usually repeats but may differ in a detail not shown here. Equal entries are not always repeated. ± gives the expanded uncertainty stated by the source.
compound,measurement,setting,value
O=C(C(F)(F)C(F)(F)F)C(F)(C(F)(F)F)C(F)(F)F [dodecafluoro-2-methylpentan-3-one],thermal conductivity,"333.01 K, 108 kPa, Liquid, transient hot wire",0.05128 ± 0.0011 W/m/K and 0.05126 ± 0.0011 W/m/K
same,thermal conductivity,"333.21 K, 69192 kPa, Liquid, transient hot wire",0.07561 ± 0.0015 W/m/K
same,thermal conductivity,"333.22 K, 69183 kPa, Liquid, transient hot wire",0.07544 ± 0.0015 W/m/K
same,thermal conductivity,"333.25 K, 28069 kPa, Liquid, transient hot wire",0.06356 ± 0.0013 W/m/K
same,thermal conductivity,"333.26 K, 28068 kPa, Liquid, transient hot wire",0.06353 ± 0.0013 W/m/K
same,thermal conductivity,"333.28 K, 57706 kPa, Liquid, transient hot wire",0.07259 ± 0.0015 W/m/K
same,thermal conductivity,"333.29 K, 57707 kPa, Liquid, transient hot wire",0.07259 ± 0.0015 W/m/K
same,thermal conductivity,"333.34 K, 3947 kPa, Liquid, transient hot wire",0.05333 ± 0.0011 W/m/K
same,thermal conductivity,"333.35 K, 3945 kPa, Liquid, transient hot wire",0.0533 ± 0.0011 W/m/K
same,thermal conductivity,"333.35 K, 20435 kPa, Liquid, transient hot wire",0.06088 ± 0.0013 W/m/K
same,thermal conductivity,"333.36 K, 20438 kPa, Liquid, transient hot wire",0.06085 ± 0.0013 W/m/K
same,thermal conductivity,"333.37 K, 45549 kPa, Liquid, transient hot wire",0.06924 ± 0.0014 W/m/K
same,thermal conductivity,"333.39 K, 45558 kPa, Liquid, transient hot wire",0.06943 ± 0.0014 W/m/K
same,thermal conductivity,"333.46 K, 14103 kPa, Liquid, transient hot wire",0.05826 ± 0.0012 W/m/K
same,thermal conductivity,"333.47 K, 14107 kPa, Liquid, transient hot wire",0.05827 ± 0.0012 W/m/K
same,thermal conductivity,"333.47 K, 36549 kPa, Liquid, transient hot wire",0.06656 ± 0.0014 W/m/K
same,thermal conductivity,"333.48 K, 36550 kPa, Liquid, transient hot wire",0.0665 ± 0.0014 W/m/K
same,thermal conductivity,"333.58 K, 8568 kPa, Liquid, transient hot wire",0.0556 ± 0.0011 W/m/K
same,thermal conductivity,"333.58 K, 8574 kPa, Liquid, transient hot wire",0.05562 ± 0.0011 W/m/K
same,thermal conductivity,"333.67 K, 231 kPa, Liquid, transient hot wire",0.05113 ± 0.0011 W/m/K
same,thermal conductivity,"333.67 K, 232 kPa, Liquid, transient hot wire",0.05114 ± 0.0011 W/m/K
same,thermal conductivity,"333.7 K, 108 kPa, Liquid, transient hot wire",0.05109 ± 0.0011 W/m/K
same,thermal conductivity,"333.71 K, 108 kPa, Liquid, transient hot wire",0.051 ± 0.0011 W/m/K
same,thermal conductivity,"341.75 K, 117 kPa, Gas, transient hot wire",0.01428 ± 0.00089 W/m/K
same,thermal conductivity,"341.75 K, 153 kPa, Gas, transient hot wire",0.01409 ± 0.00088 W/m/K
same,thermal conductivity,"341.8 K, 117 kPa, Gas, transient hot wire",0.01432 ± 0.00089 W/m/K
same,thermal conductivity,"341.81 K, 154 kPa, Gas, transient hot wire",0.01416 ± 0.00088 W/m/K
same,thermal conductivity,"341.86 K, 61 kPa, Gas, transient hot wire",0.01468 ± 0.00091 W/m/K
same,thermal conductivity,"341.91 K, 62 kPa, Gas, transient hot wire",0.01468 ± 0.00091 W/m/K
same,thermal conductivity,"342.04 K, 153 kPa, Gas, transient hot wire",0.01411 ± 0.00088 W/m/K
same,thermal conductivity,"342.05 K, 117 kPa, Gas, transient hot wire",0.01436 ± 0.00089 W/m/K
same,thermal conductivity,"342.11 K, 116 kPa, Gas, transient hot wire",0.01434 ± 0.00089 W/m/K
same,thermal conductivity,"342.11 K, 153 kPa, Gas, transient hot wire",0.0142 ± 0.00089 W/m/K
same,thermal conductivity,"342.19 K, 61 kPa, Gas, transient hot wire",0.01474 ± 0.00092 W/m/K
same,thermal conductivity,"342.23 K, 61 kPa, Gas, transient hot wire",0.01466 ± 0.00091 W/m/K
same,thermal conductivity,"342.38 K, 153 kPa, Gas, transient hot wire",0.0142 ± 0.00091 W/m/K
same,thermal conductivity,"342.39 K, 115 kPa, Gas, transient hot wire",0.01437 ± 0.00089 W/m/K
same,thermal conductivity,"342.44 K, 116 kPa, Gas, transient hot wire",0.01444 ± 0.0009 W/m/K
same,thermal conductivity,"342.44 K, 153 kPa, Gas, transient hot wire",0.01429 ± 0.00092 W/m/K
same,thermal conductivity,"342.56 K, 60 kPa, Gas, transient hot wire",0.01477 ± 0.00092 W/m/K
same,thermal conductivity,"342.59 K, 61 kPa, Gas, transient hot wire",0.01463 ± 0.00091 W/m/K
same,thermal conductivity,"342.74 K, 153 kPa, Gas, transient hot wire",0.01422 ± 0.00093 W/m/K
same,thermal conductivity,"342.76 K, 115 kPa, Gas, transient hot wire",0.0144 ± 0.0009 W/m/K
same,thermal conductivity,"342.8 K, 153 kPa, Gas, transient hot wire",0.01428 ± 0.00093 W/m/K
same,thermal conductivity,"342.81 K, 116 kPa, Gas, transient hot wire",0.01448 ± 0.0009 W/m/K
same,thermal conductivity,"342.95 K, 60 kPa, Gas, transient hot wire",0.01472 ± 0.00091 W/m/K
same,thermal conductivity,"342.98 K, 61 kPa, Gas, transient hot wire",0.01475 ± 0.00092 W/m/K
same,thermal conductivity,"343.11 K, 153 kPa, Gas, transient hot wire",0.01428 ± 0.00089 W/m/K
same,thermal conductivity,"343.15 K, 116 kPa, Gas, transient hot wire",0.01455 ± 0.0009 W/m/K
same,thermal conductivity,"343.18 K, 153 kPa, Gas, transient hot wire",0.01436 ± 0.00089 W/m/K
same,thermal conductivity,"343.2 K, 116 kPa, Gas, transient hot wire",0.0145 ± 0.0009 W/m/K
same,thermal conductivity,"343.36 K, 60 kPa, Gas, transient hot wire",0.0147 ± 0.00092 W/m/K
same,thermal conductivity,"343.39 K, 61 kPa, Gas, transient hot wire",0.01474 ± 0.00092 W/m/K
same,thermal conductivity,"343.88 K, 192 kPa, Gas, hot wire",0.01563 ± 0.00078 W/m/K
same,thermal conductivity,"343.89 K, 192 kPa, Gas, hot wire",0.01557 ± 0.00076 W/m/K
same,thermal conductivity,"343.9 K, 170 kPa, Gas, hot wire",0.01524 ± 0.00072 W/m/K and 0.0152 ± 0.00072 W/m/K
same,thermal conductivity,"343.91 K, 134 kPa, Gas, hot wire",0.01511 ± 0.00072 W/m/K and 0.01509 ± 0.00072 W/m/K
same,thermal conductivity,"343.94 K, 82 kPa, Gas, hot wire",0.0148 ± 0.0007 W/m/K and 0.01481 ± 0.0007 W/m/K
same,thermal conductivity,"343.99 K, 26 kPa, Gas, hot wire",0.01441 ± 0.00068 W/m/K
same,thermal conductivity,"344 K, 26 kPa, Gas, hot wire",0.01439 ± 0.00068 W/m/K
same,thermal conductivity,"344.02 K, 192 kPa, Gas, hot wire",0.01569 ± 0.00078 W/m/K
same,thermal conductivity,"344.03 K, 192 kPa, Gas, hot wire",0.01571 ± 0.00078 W/m/K
same,thermal conductivity,"344.04 K, 170 kPa, Gas, hot wire",0.01532 ± 0.00073 W/m/K
same,thermal conductivity,"344.06 K, 134 kPa, Gas, hot wire",0.01505 ± 0.00071 W/m/K
same,thermal conductivity,"344.07 K, 134 kPa, Gas, hot wire",0.01503 ± 0.00071 W/m/K
same,thermal conductivity,"344.1 K, 82 kPa, Gas, hot wire",0.01476 ± 0.0007 W/m/K
same,thermal conductivity,"344.1 K, 83 kPa, Gas, hot wire",0.01479 ± 0.0007 W/m/K
same,thermal conductivity,"344.14 K, 26 kPa, Gas, hot wire",0.01446 ± 0.00068 W/m/K and 0.01445 ± 0.00068 W/m/K
same,thermal conductivity,"344.17 K, 191 kPa, Gas, hot wire",0.01575 ± 0.00078 W/m/K and 0.01573 ± 0.00078 W/m/K
same,thermal conductivity,"344.19 K, 169 kPa, Gas, hot wire",0.01545 ± 0.00074 W/m/K and 0.01542 ± 0.00074 W/m/K
same,thermal conductivity,"344.21 K, 133 kPa, Gas, hot wire",0.01513 ± 0.00072 W/m/K
same,thermal conductivity,"344.25 K, 83 kPa, Gas, hot wire",0.0148 ± 0.0007 W/m/K
same,thermal conductivity,"344.26 K, 83 kPa, Gas, hot wire",0.01479 ± 0.0007 W/m/K
same,thermal conductivity,"344.31 K, 26 kPa, Gas, hot wire",0.01448 ± 0.00068 W/m/K and 0.01449 ± 0.00068 W/m/K
same,thermal conductivity,"344.31 K, 191 kPa, Gas, hot wire",0.01589 ± 0.00079 W/m/K
same,thermal conductivity,"344.32 K, 191 kPa, Gas, hot wire",0.01586 ± 0.00079 W/m/K
same,thermal conductivity,"344.35 K, 169 kPa, Gas, hot wire",0.01551 ± 0.00074 W/m/K and 0.01555 ± 0.00074 W/m/K
same,thermal conductivity,"344.38 K, 132 kPa, Gas, hot wire",0.01516 ± 0.00072 W/m/K
same,thermal conductivity,"344.38 K, 133 kPa, Gas, hot wire",0.01519 ± 0.00072 W/m/K
same,thermal conductivity,"344.43 K, 83 kPa, Gas, hot wire",0.0148 ± 0.0007 W/m/K
same,thermal conductivity,"344.44 K, 83 kPa, Gas, hot wire",0.01478 ± 0.0007 W/m/K
same,thermal conductivity,"344.47 K, 191 kPa, Gas, hot wire",0.01601 ± 0.0008 W/m/K and 0.01602 ± 0.0008 W/m/K
same,thermal conductivity,"344.49 K, 26 kPa, Gas, hot wire",0.01446 ± 0.00068 W/m/K and 0.01447 ± 0.00068 W/m/K
same,thermal conductivity,"344.51 K, 169 kPa, Gas, hot wire",0.01563 ± 0.00075 W/m/K
